Assay results: ChEMBL document CHEMBL5154839, “Discovery of a selective and covalent small-molecule inhibitor of BFL-1 protein that induces robust apoptosis in cancer cells” (Eur J Med Chem, 2022)
Active and inactive are the calls of the source. The rule behind the calls is not given here.

Experiments:
[1] = system: Raji; test: Growth inhibition of human Raji cells incubated for 4 days by WST assay; assay type: functional, cell-based; conditions: 96 h
[2] = target: Induced myeloid leukemia cell differentiation protein Mcl-1 (Homo sapiens, UniProt Q07820); test: Displacement of fluorescein tagged BID BH3 peptide from human MCL-1 (172 to 327 residues) expressed in Escherichia coli BL21 (DE3) assessed as inhibition constant incubated for 1.5 hrs by fluorescence polarization-based competitive binding assay
[3] = target: T1, Bromodomain-containing protein 3 (Homo sapiens, UniProt Q15059); test: Binding affinity to recombinant human BRD3 BD1 (24-144 residues) assessed as inhibition constant by fluorescence polarization assay
[4] = system: U-937; test: Induction of apoptosis in human U-937 cells assessed as decrease in MCL-1 protein expression after 24 hrs by Western blot analysis; assay type: functional, cell-based; conditions: DDE = dose-dependent effect
[5] = system: U-937; test: Induction of apoptosis in human U-937 cells assessed as late apoptotic cells at 20 uM measured after 4 hrs by Annexin PI staining based flow cytometry method (reference value: 1.62 %); assay type: functional
[6] = system: U-937; test: Induction of apoptosis in human U-937 cells assessed as early apoptotic cells at 20 uM measured after 4 hrs by Annexin PI staining based flow cytometry method (reference value: 1.95 %); assay type: functional
[7] = system: U-937; test: Upregulation of BFL-1 protein expression in human U-937 cells by Western blotting analysis; assay type: functional, cell-based
[8] = system: U-937; test: Induction of apoptosis in human U-937 cells assessed as necrotic cells at 20 uM measured after 4 hrs by Annexin PI staining based flow cytometry method (reference value: 0.00 %); assay type: functional
[9] = system: U-937; test: Induction of apoptosis in human U-937 cells assessed as late apoptotic cells at 60 uM measured after 4 hrs by Annexin PI staining based flow cytometry method (reference value: 1.62 %); assay type: functional
[10] = system: HL-60; test: Growth inhibition of human HL-60 cells incubated for 4 days by WST assay; assay type: functional, cell-based; conditions: HL-60, 96 h
[11] = system: Kasumi 1; test: Upregulation of BFL-1 protein expression in human Kasumi 1 cells by Western blotting analysis; assay type: functional, cell-based
[12] = system: U-937; test: Induction of apoptosis in human U-937 cells assessed as caspase-3 cleavage measured after 24 hrs by Western blot analysis; assay type: functional, cell-based; conditions: DDE = dose-dependent effect
[13] = target: Transcriptional enhancer factor TEF-3 (Homo sapiens, UniProt Q15561); test: Displacement of FAM- labeled YAP1 peptide from TEAD4 (217 to 434 residues) (unknown origin) expressed in Escherichia coli BL21 (DE3) assessed as inhibition constant incubated for 1.5 hrs by fluorescence polarization-based competitive binding assay
[14] = target: Bromodomain-containing protein 2 (Homo sapiens, UniProt P25440); test: Binding affinity to recombinant human BRD2 BD1 (72-205 residues) assessed as inhibition constant by fluorescence polarization assay
[15] = Displacement of fluorescein tagged BID BH3 peptide from His-tagged recombinant BFL-1 (1 to 151 residues) C55A mutant (unknown origin) expressed in Escherichia coli BL21 (DE3) assessed as inhibition constant incubated for 24 hrs by fluorescence polarization-based competitive binding assay; parameters: species or system Homo sapiens
[16] = system: U-937; test: Induction of apoptosis in human U-937 cells overexpressing BFL-1 assessed as increase in cytochrome c level incubated for 3 hrs by immunoblotting analysis; assay type: functional, cell-based
[17] = target: T2, Bcl-2-related protein A1 (Homo sapiens, UniProt Q16548); test: Binding affinity to His-tagged recombinant BFL-1 (1 to 151 residues) (unknown origin) expressed in Escherichia coli BL21 (DE3) assessed as dissociation constant by surface plasmon resonance analysis
T2 sequence (Q16548 whole entry): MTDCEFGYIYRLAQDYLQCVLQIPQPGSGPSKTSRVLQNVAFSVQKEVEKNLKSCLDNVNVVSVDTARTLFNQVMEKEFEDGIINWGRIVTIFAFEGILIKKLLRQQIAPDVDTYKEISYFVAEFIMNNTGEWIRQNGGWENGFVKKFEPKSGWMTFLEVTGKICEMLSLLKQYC

[18] = target: Bcl-2-like protein 1 (Homo sapiens, UniProt Q07817); test: Displacement of fluorescein tagged BAK peptide from N-terminal His tagged human BCL-xL (1 to 209 residues) expressed in Escherichia coli BL21 (DE3) assessed as inhibition constant incubated for 1.5 hrs by fluorescence polarization-based competitive binding assay
[19] = target: BCL2A11/BBC3 (Homo sapiens) (UniProt Q16548+Q9BXH1); test: Inhibition of human BFL-1/PUMA protein-protein interaction in human Kasumi 1 cells assessed as decrease in PUMA protein level at 80 uM measured after 5 hrs by co-immunoprecipitation assay; assay type: cell-based
[20] = system: U-937; test: Induction of apoptosis in human U-937 cells assessed as early apoptotic cells at 60 uM measured after 4 hrs by Annexin PI staining based flow cytometry method (reference value: 1.95 %); assay type: functional
[21] = system: K562; test: Growth inhibition of human K562 cells incubated for 4 days by WST assay; assay type: functional, cell-based; conditions: K562, 96 h
[22] = system: MM1.S; test: Upregulation of BFL-1protein expression in human MM1.S cells by Western blotting analysis; assay type: functional, cell-based
[23] = target: beta-catenin-B-cell lymphoma 9 protein complex (Homo sapiens, UniProt P35222); test: Inhibition of N-terminal biotinylated human BCL9 (350 to 375 residues)/C-terminal 6-His-tagged beta-catenin (1 to 781 residues) (unknown origin) expressed in Escherichia coli BL21 (DE3) protein-protein interaction assessed as inhibition constant incubated for 1 hr by Alphascreen assay
[24] = system: U-937; test: Induction of apoptosis in human U-937 cells assessed as necrotic cells at 10 uM measured after 4 hrs by Annexin PI staining based flow cytometry method (reference value: 0.00 %); assay type: functional
[25] = system: K562; test: Upregulation of BFL-1protein expression in human K562 cells by Western blotting analysis; assay type: functional, cell-based
[26] = target: Bcl-2-related protein A1 (Homo sapiens) (UniProt Q16548); test: Binding affinity to His-tagged recombinant BFL-1 (1 to 151 residues) (unknown origin) expressed in Escherichia coli BL21 (DE3) assessed as association constant by surface plasmon resonance analysis
[27] = target: T2, Bcl-2-related protein A1; test: Displacement of fluorescein tagged BID BH3 peptide from His-tagged recombinant BFL-1 (1 to 151 residues) (unknown origin) expressed in Escherichia coli BL21 (DE3) assessed as inhibition constant incubated for 24 hrs by fluorescence polarization-based competitive binding assay
[28] = target: T1, Bromodomain-containing protein 3; test: Binding affinity to recombinant human BRD3 BD2 (306-417 residues) assessed as inhibition constant by fluorescence polarization assay
[29] = system: RPMI-8226; test: Growth inhibition of human RPMI-8226 cells incubated for 4 days by WST assay; assay type: functional, cell-based; conditions: RPMI-8226, 96 h
[30] = system: Kasumi 1; test: Induction of apoptosis in human Kasumi 1 cells overexpressing BFL-1 assessed as increase in cytochrome c level at 5 to 40 uM incubated for 3 hrs by immunoblotting analysis; assay type: functional, cell-based; conditions: dose 5-40 µM
[31] = system: RPMI-8226; test: Upregulation of BFL-1protein expression in human RPMI-8226 cells by Western blotting analysis; assay type: functional, cell-based
[32] = system: U-937; test: Induction of apoptosis in human U-937 cells assessed as increase in cytochrome c level incubated for 3 hrs by immunoblotting analysis; assay type: functional, cell-based
[33] = system: Kasumi 1; test: Growth inhibition of human Kasumi 1 cells incubated for 4 days by WST assay; assay type: functional, cell-based; conditions: Kasumi 1, 96 h

T1 sequence (Q15059 whole entry, the tested form may be a part): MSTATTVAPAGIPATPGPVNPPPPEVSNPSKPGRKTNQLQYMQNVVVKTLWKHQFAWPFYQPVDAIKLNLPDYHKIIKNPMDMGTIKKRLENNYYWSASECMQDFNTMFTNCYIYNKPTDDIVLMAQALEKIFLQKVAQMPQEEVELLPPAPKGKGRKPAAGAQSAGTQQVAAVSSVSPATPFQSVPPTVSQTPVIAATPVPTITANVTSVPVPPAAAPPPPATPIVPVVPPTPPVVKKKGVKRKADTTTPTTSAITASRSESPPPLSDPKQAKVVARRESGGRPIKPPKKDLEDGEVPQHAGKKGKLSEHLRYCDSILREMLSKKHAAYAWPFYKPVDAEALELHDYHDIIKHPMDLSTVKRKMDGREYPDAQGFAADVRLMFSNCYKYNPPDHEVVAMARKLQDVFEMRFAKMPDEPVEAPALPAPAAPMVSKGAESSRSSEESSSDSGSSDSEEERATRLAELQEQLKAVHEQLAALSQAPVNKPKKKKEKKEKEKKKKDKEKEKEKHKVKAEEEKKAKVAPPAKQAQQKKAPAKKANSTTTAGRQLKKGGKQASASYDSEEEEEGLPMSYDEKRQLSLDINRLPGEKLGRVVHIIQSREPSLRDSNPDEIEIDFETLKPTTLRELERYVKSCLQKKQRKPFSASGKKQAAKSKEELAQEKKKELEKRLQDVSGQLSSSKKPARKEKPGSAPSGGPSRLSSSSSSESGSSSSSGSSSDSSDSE
Bcl-2-like protein 1, sequence (Q07817 whole entry, the tested form may be a part): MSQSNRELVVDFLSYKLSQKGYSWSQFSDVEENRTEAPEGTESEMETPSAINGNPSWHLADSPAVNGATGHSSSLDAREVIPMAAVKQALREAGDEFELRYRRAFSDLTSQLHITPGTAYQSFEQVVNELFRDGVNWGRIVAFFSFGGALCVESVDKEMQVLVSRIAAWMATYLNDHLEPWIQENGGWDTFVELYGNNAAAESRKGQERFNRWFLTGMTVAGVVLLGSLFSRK
Transcriptional enhancer factor TEF-3, sequence (Q15561 whole entry, the tested form may be a part): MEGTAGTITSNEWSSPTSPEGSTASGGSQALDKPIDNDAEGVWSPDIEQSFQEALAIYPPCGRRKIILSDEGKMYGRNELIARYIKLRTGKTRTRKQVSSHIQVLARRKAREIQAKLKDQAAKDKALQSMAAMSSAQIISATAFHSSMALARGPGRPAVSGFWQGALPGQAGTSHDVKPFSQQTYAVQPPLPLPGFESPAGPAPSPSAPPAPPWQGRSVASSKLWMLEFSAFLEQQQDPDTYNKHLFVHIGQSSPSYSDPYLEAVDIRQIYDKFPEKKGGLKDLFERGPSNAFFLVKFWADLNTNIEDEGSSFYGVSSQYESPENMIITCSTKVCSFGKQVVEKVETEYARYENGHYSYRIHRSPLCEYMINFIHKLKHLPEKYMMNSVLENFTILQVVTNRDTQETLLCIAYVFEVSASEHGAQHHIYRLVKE
Bromodomain-containing protein 2, sequence (P25440 whole entry, the tested form may be a part): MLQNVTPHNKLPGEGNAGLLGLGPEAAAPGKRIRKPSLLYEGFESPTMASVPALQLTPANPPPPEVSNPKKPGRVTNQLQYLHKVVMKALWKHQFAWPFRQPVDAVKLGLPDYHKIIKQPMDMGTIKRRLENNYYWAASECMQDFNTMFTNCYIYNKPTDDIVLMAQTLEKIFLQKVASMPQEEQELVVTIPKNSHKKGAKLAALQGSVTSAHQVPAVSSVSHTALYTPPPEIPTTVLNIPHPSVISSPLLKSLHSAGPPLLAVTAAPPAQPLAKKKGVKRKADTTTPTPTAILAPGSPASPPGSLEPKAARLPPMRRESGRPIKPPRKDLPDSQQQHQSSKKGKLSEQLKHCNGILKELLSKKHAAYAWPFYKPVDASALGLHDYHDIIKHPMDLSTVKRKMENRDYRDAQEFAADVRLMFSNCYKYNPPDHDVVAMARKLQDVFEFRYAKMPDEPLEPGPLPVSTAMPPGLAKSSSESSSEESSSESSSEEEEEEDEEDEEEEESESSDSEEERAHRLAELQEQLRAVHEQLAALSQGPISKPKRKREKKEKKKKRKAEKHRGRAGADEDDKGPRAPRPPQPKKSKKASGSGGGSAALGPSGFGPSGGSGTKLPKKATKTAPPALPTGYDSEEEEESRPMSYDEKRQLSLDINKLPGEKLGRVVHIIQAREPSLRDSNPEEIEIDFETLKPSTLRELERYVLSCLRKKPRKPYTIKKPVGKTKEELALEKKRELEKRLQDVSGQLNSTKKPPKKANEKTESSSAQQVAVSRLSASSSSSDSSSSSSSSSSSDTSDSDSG
Induced myeloid leukemia cell differentiation protein Mcl-1, sequence (Q07820 whole entry, the tested form may be a part): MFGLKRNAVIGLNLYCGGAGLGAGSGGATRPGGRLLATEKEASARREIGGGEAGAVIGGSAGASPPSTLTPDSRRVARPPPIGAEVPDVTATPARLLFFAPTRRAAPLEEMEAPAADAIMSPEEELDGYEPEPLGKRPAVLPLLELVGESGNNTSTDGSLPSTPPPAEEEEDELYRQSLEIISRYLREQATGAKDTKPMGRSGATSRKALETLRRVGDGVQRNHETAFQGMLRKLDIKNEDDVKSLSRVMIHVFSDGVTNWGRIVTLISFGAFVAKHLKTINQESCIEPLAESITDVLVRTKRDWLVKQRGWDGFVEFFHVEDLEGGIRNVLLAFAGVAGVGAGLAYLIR
BCL2A11/BBC3 (Homo sapiens), sequence (Q9BXH1 whole entry, looked up, one chain of several): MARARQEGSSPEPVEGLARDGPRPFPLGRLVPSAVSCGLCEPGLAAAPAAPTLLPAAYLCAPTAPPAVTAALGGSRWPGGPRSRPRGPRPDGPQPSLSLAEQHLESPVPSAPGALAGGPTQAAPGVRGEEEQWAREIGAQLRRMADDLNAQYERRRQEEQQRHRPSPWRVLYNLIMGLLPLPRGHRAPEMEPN
beta-catenin-B-cell lymphoma 9 protein complex, sequence (P35222 whole entry, the tested form may be a part): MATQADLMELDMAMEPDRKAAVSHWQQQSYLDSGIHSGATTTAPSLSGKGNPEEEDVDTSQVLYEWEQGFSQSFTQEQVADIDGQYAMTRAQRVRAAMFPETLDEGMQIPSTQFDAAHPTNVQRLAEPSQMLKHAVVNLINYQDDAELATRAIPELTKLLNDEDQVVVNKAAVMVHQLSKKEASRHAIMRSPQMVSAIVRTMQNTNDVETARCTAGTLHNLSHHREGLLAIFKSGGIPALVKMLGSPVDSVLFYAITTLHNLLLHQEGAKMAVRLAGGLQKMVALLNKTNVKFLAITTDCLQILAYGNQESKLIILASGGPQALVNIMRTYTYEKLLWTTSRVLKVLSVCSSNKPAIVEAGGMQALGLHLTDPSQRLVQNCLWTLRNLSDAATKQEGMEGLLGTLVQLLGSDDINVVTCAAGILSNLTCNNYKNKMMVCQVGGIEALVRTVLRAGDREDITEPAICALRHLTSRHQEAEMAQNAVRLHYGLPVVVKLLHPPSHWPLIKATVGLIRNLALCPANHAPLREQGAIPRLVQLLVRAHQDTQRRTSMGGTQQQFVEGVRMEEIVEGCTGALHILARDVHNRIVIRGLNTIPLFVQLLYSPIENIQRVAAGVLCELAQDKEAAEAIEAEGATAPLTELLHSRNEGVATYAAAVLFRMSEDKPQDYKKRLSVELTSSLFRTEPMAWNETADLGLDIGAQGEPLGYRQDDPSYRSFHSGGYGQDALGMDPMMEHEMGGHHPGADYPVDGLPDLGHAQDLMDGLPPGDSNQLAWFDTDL
beta-catenin-B-cell lymphoma 9 protein complex, sequence (O00512 whole entry, further chain, the tested form may be a part): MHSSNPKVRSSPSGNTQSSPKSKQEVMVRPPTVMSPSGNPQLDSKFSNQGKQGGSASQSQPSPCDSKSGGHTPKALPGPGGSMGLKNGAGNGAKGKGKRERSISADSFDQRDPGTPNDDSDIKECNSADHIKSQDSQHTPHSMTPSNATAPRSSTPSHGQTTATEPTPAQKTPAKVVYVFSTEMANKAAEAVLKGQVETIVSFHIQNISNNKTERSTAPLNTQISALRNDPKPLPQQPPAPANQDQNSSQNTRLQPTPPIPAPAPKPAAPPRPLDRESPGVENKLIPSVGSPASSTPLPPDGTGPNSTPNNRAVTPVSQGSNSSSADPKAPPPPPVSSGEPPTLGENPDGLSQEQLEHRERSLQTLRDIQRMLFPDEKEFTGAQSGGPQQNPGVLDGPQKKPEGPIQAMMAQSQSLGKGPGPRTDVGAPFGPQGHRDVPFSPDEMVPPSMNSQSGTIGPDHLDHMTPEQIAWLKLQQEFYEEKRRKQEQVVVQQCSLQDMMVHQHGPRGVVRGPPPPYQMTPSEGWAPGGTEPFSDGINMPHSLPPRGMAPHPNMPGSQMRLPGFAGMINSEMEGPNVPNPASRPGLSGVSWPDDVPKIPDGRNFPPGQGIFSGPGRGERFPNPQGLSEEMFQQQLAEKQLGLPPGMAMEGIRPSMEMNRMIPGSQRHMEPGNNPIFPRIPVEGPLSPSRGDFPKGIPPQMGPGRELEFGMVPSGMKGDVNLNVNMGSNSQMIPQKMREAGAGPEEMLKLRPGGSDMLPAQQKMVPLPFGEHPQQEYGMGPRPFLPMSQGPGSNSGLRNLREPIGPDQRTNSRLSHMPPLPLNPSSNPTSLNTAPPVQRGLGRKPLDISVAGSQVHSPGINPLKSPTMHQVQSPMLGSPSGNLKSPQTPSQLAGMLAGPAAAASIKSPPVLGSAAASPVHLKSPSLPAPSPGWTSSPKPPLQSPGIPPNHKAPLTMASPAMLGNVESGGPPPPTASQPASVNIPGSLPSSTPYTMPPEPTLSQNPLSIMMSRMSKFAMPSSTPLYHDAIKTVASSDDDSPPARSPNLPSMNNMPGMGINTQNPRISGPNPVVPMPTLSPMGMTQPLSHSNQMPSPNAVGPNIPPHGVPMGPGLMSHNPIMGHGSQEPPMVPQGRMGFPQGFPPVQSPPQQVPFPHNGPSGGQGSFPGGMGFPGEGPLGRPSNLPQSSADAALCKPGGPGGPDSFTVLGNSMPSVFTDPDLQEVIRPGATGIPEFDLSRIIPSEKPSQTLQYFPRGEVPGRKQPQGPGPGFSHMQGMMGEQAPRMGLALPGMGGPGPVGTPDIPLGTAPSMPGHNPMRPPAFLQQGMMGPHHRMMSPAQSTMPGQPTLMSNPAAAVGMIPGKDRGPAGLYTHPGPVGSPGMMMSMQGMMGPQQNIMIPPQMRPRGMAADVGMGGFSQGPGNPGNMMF

**Q.** Which IC50 [1] does the source give for `C=CC(=O)N1CCN(c2c3ccc(-c4cccc(F)c4)cc3nn2Cc2ccccc2)CC1` here?
**A.** Its IC50 is 26.9 µM.

**Q.** What about the Ki [2] of the same molecule?
**A.** The Ki was 111 µM.

**Q.** What about the Ki [3] of the same molecule?
**A.** Its Ki is > 400 µM.

**Q.** And the Activity [4]?
**A.** Its Activity is “Dde”.

**Q.** And the Activity [5]?
**A.** Its Activity is 4.05%.

**Q.** What about the Activity [6] of the same molecule?
**A.** The Activity was 8.02%.

**Q.** What about the Activity [7] of the same molecule?
**A.** The Activity was “Active”.

**Q.** What about the Activity [8] of the same molecule?
**A.** The Activity was 1.02%.

**Q.** What about the Activity [9] of the same molecule?
**A.** The Activity was 21.52%.

**Q.** What about the IC50 [10] of the same molecule?
**A.** The IC50 was 10.7 µM.

**Q.** What about the Activity [11] of the same molecule?
**A.** The Activity was “Active”.

**Q.** What about the Activity [12] of the same molecule?
**A.** Its Activity is “Dde”.

**Q.** What about the Ki [13] of the same molecule?
**A.** Its Ki is > 400 µM.

**Q.** What about the Ki [14] of the same molecule?
**A.** The Ki was > 400 µM.

**Q.** And the Ki [15]?
**A.** The Ki was 8.68 µM.

**Q.** What about the Activity [16] of the same molecule?
**A.** The Activity was “Active”.

**Q.** And the Kd [17]?
**A.** The Kd was 0.262 µM.

**Q.** And the Ki [18]?
**A.** The Ki was > 400 µM.

**Q.** And the inhibition [19]?
**A.** Its inhibition is “Active”.

**Q.** What about the Activity [20] of the same molecule?
**A.** The Activity was 4.61%.

**Q.** What about the IC50 [21] of the same molecule?
**A.** The IC50 was 7.7 µM.

**Q.** And the Activity [22]?
**A.** Its Activity is “Active”.

**Q.** What about the Ki [23] of the same molecule?
**A.** Its Ki is > 400 µM.

**Q.** What about the Activity [24] of the same molecule?
**A.** The Activity was 0.16%.

**Q.** And the Activity [25]?
**A.** Its Activity is “Active”.

**Q.** And the Ka [26]?
**A.** The Ka was 2.09 10^5/Ms.

**Q.** And the Ki [27]?
**A.** The Ki was 0.41 µM.

**Q.** And the Ki [28]?
**A.** The Ki was > 400 µM.

**Q.** And the IC50 [29]?
**A.** The IC50 was 8.7 µM.

**Q.** What about the Activity [30] of the same molecule?
**A.** Its Activity is “Active”.

**Q.** What about the Activity [31] of the same molecule?
**A.** The Activity was “Active”.

**Q.** And the Activity [32]?
**A.** The Activity was “Active”.

**Q.** And the IC50 [33]?
**A.** The IC50 was 5.5 µM.
